For experiment [1], the system named is S. aureus cells. In words: Relative membrane potential in an S. aureus culture, BacLight Bacterial Membrane Potential Kit (DiOC2), flow cytometry. It counts as cell-based, Staphylococcus aureus. The note with it: SYTOX Blue-positive dead cells excluded, data not shown. A general note: In flow cytometry, cells or beads pass a laser one at a time.
In experiment [2] the test system is Jurkat cells (T-cell leukemia, human). The experiment can be described thus: Apoptosis detection with the Annexin V Dead Cell Apoptosis Kit by acoustic flow cytometry. It counts as cell-based. The note with it: 10 μM camptothecin for 4 hr, Annexin V staining, 488 nm excitation. The source says: Apoptotic plasma membrane assays for flow cytometry: Some of the earliest detectable apoptotic events involve the plasma membrane, including changes in membrane asymmetry and permeability. In addition to annexin V conjugates, Life Technologies provides unique assays to measure membrane changes under conditions where annexin V binding is problematic, such as in adherent cells, and without using special buffers. Annexin V conjugates In apoptotic cells, phosphatidylserine (PS) is translocated from the inner to the outer leaflet of the plasma membrane, thus exposing PS to the external cellular environment. Annexin V labeled with a fluorophore can identify apoptotic cells by binding to PS exposed on the outer leaflet of the membrane. The Alexa Fluor® series of dyes, used in Life Technologies Annexin V Dead Cell Apoptosis Kits provides brighter and more photostable bioconjugates than other organic dyes with similar spectral characteristics. Apoptosis detection with the Annexin V Dead Cell Apoptosis Kit. Jurkat cells (T-cell leukemia, human) treated with 10 μM camptothecin for 4 hr (B) or untreated control (A). Cells were stained using the Annexin V Dead Cell Apoptosis Kit and analyzed by flow cytometry with 488 nm excitation on the Attune® Acoustic Focusing Cytometer with 530/30 Xnm and 575/24 nm bandpass filters. Data were acquired with a standard 100 XμL/min collection rate. […]

On to `N#CC(C#N)=NNc1cccc(Cl)c1` [CCCP, carbonylcyanide 3-chlorophenylhydrazone], for which, in experiment [1], the “red-shifted DiOC2 fluorescence (membrane potential), treated versus untreated sample” value is listed as “increased red-shifted DiOC2 fluorescence in the untreated sample (−CCCP, green) as compared to the CCCP-treated sample”.
On to `CC[C@@]1(O)C(=O)OCc2c1cc1n(c2=O)Cc2cc3ccccc3nc2-1` [camptothecin], for which the “percentage of apoptotic cells versus untreated control” value in experiment [2] is “higher percentage of apoptotic cells”.

These data come from US20140147860A1, “Acoustic Cytometry Methods and Protocols” (LIFE TECHNOLOGIES CORPORATION, priority 2011, published 2014).
